Experimental data: PMC6872521, “An in silico—in vitro Pipeline Identifying an HLA-A^*02:01^+ KRAS G12V^+ Spliced Epitope Candidate for a Broad Tumor-Immune Response in Cancer Patients” (Frontiers in Immunology, 2019)

How the values were obtained:
[1] = test system: PBMCs of pancreatic adenocarcinoma patients; settings: cited from earlier work
[2] = test system: TAPs (transporters associated with antigen processing); assay: TAP assay: competition with a fluorescent reference peptide for TAP-dependent translocation into microsomes; format: biochemical; settings: competition with fluorescent tracer peptide; microsomes from LCL721 cells; 10 mM ATP mixture; 20 min at 37°C; fluorescence read-out; signal without ATP subtracted; result in words (EC50 values only in Figure 6B)
Description: The transport efficiency of target peptides (Supplementary Table 2) into the ER lumen mediated by TAPs was carried out as previously described ([29]) although some modifications were introduced. These include the use of a fluorescent peptide tracer and the use of microsomes rather than Streptolysin O permeabilized cells. Briefly, peptides were dissolved in DMSO and different concentrations were distributed in a final volume of 10 μl DMSO. At the same time, a mixture of 10 mM ATP, 100 mM Tris-HCl pH7.5 and 5 mM MgCl2 and fluorescent tracer peptide was prepared. 60 μl of this mixture was added to the 10 μl competing peptide mixture to a final volume of 70 μl. This was prewarmed to 37°C and 30 μl of pre-warmed microsomes were added. Microsomes were derived from LCL721 cells, as previously described ([29]).
The mixture was incubated for 20 min at 37°C followed by cell lysis with lysis mixture (0.5% TX100, 5 mM MgCl2 in 100 mM Tris-HCl pH7.5) at 4°C. After at least 30 min incubation at 4°C, DNA was pelleted and the supernatant transferred to a new vial including ConA-beads. After at least 30 min incubation on ice, cells were washed four times with lysis mixture and the last time with 100 mM Tris-HCl pH7.5 before transfer to 96 wells plates (Corning) followed by fluorescence measurements in a plate reader. To detect background signals, a sample without competing peptide and ATP was included and fully performed as described above. This signal was subtracted from the detected signal.
To quantify the efficiency of peptide transport into the ER lumen by TAP, we measured the competition between the target peptides and a fluorescent reference peptide for TAP-dependent translocation into free microsomes.

[3] = target: HLA-A*02:01 complex (Homo sapiens, UniProt P04439, D140Y/D185E/D98H/E176V/E277Q/G131W/G231S/I119V/I121R/I166T/I218V/L300P/L318F/N151K/N90K/P208A/P217A/Q86G/Q94H/R138H/R169H/T345S); assay: HLA-A*02:01-peptide binding affinity measured with purified HLA-I molecules; settings: cell-free system, values only in Figure 6C
Description: The binding affinity between theoretical spliced and non-spliced peptides and HLA-A^*02:01 was predicted using the NetMHCPan 3.0 algorithm ([30]). […] The binding affinity between the synthetic peptides and HLA-A^*02:01 complexes was measured using purified HLA-I molecules, as described elsewhere ([10]).
Once a peptide arrives in the ER lumen, its binding affinity to the specific HLA-I molecule determines whether it will ultimately be presented. Therefore, we measured the binding affinity of the same six peptides previously tested in the TAP assay and the HLA-A^*02:01 complex in a cell-free system utilizing purified HLA-I molecules.

[4] = test system: Transduced human CD8+ T cells; settings: TCRs isolated from humanized ABabDII mice, transduced into human PBMCs; cited from earlier work
Excerpt: Our pipeline identifies epitope candidates which shall further be validated by isolating specific CTL clones and their TCRs and using them to confirm that the epitope candidates are produced in cellulo and eventually in vivo. There are several strategies to this end. For example, the KRAS5−6/8−14 spliced epitope candidate here identified has been validated in collaboration with Blankenstein et al. ([56]). Specific TCRs have been isolated from humanized ABabDII mice ([57]), cloned into expressing vectors and transduced into human PBMCs.

| Compound | Recognition by PBMCs of pancreatic adenocarcinoma patients [1] | Transport efficiency into the ER lumen mediated by TAPs [2] | Binding to HLA-A*02:01 complex (result in words) [3] | Recognition of the epitope by TCR-transduced human CD8+ T cells [4] |
| --- | --- | --- | --- | --- |
| CC(C)C[C@H](NC(=O)[C@@H](N)CCCCN)C(=O)N[C@H](C(=O)N[C@H](C(=O)N[C@H](C(=O)NCC(=O)N[C@@H](C)C(=O)N[C@H](C(=O)NCC(=O)N[C@H](C(=O)O)C(C)C)C(C)C)C(C)C)C(C)C)C(C)C [KRAS5−14 G12V] | recognized by PBMCs |  |  |  |
| KLVVVAVGV [peptide #2] |  | not competing with the reference peptide |  |  |
| YLVVVGAVGV [peptide #1] |  | transported by TAP as efficiently as the non-spliced epitope candidate |  |  |
| [KL][VVGAVGV] [KRAS5−6/8−14 G12V] |  | efficiently transported by TAPs | efficiently bind | selectively recognized |
